Laboratory results published in patent publication US20220315534A1, “BETA ADRENERGIC AGONIST AND METHODS OF USING THE SAME” (Curasen Therapeutics, Inc., priority 2019, published 2022).

Key:
[1] = target: T1, β1-adrenergic receptor (B1-AR) (Homo sapiens, UniProt P08588); assay: cAMP Gs dynamic HTRF assay, cells expressing β1-adrenergic receptor; format: cell-based; details: CHO-K1 (HitHunter) cells; read-out: Average pEC50 [Receptor subtype: B1-AR; Cell type: CHO-K1 (HitHunter)] (converted)
T1 construct: expressed in transfected cells
Description: (§1) cAMP homogeneous time-resolved fluorescence (HTRF): experimental methods. Compound efficacy is determined using the cAMP Gs dynamic HTRF assay (Cisbio, catalog #62AM4PEC) largely following the manufacturer's instructions, also detailed below.
(§2) Standard serial dilution curves are 10-point, 5-fold dilutions starting from a highest concentration of 10 μM. […] Assay plates are centrifuged at 500×g for 10 seconds. Compounds and IBMX are prepared at 2× final dose to compensate for addition of cells.
(§3) Cell preparation: 1× stimulation buffer, washing PBS (Dulbecco's phosphate-buffered saline, —Mg —Ca; Caisson Labs, catalog #PBL01), assay PBS (Dulbecco's phosphate-buffered saline, +Mg, +Ca; Caisson Labs, catalog #PBL02) and Versene (0.02% EDTA disodium salt solution in PBS without calcium or magnesium; Caisson Labs, catalog #EDL01) are pre-warmed to 37° C. Cells expressing beta-adrenergic receptor were washed in washing PBS to remove growth medium and then released from the surface by incubating with Versene for 5-10 minutes at 37° C. Cells are harvested using assay PBS, counted manually by hemocytometer or by an automated cell counter, pelleted by centrifugation (200×g, 5 minutes) and resuspended in 37° C. 1× stimulation buffer to a final density of […]. 5 μL of the suspended cell solution (7500 cell total) are added to all wells of the 384 well assay plate, the assay plate was covered with an Axygen® plate seal (Corning PCR-SP) and incubated in a humidified 37° C. environment supplemented with 5% CO2 for 30 minutes.
(§4) HTRF reagent addition, reading and data analysis: After 30 minutes of cell stimulation with test compound, the assay plates are centrifuged at 500×g for 10 seconds, and incubation was stopped with the addition of 5 μL cAMP-D2 acceptor, diluted 1:21 in detection and lysis buffer 2 (Cisbio 62CL2FDF) was added to all cells. Subsequently, 5 μL Anti-cAMP-Eu Donor, diluted 1:21 in detection and lysis buffer 2, was added to cells. Plates were sealed and reactions gently ‘vortexed’ at 900 rpm on a Heidolph Titramax 1000 for at least 30 minutes at room temperature. Plates are centrifuged again at 500×g for 10 seconds, and HTRF was measured using a Tecan Spark plate reader at 50 flashes per well. […] Potency estimates (EC50 and pEC50) are derived from the four-parameter nonlinear regression of the concentration-effect curve and an estimate of relative efficacy is determined by comparing the magnitude of the test compound HTRF signal window (min-max dose) with the signal window of the full agonist control, isoproterenol.

[2] = target: T2, β2-adrenergic receptor (B2-AR) (Homo sapiens, UniProt P07550); assay: cAMP Gs dynamic HTRF assay, cells expressing β2-adrenergic receptor; format: cell-based; details: CHO-K1 (HitHunter) cells; read-out: Average pEC50 [Receptor subtype: B2-AR; Cell type: CHO-K1 (HitHunter)] (converted)
T2 construct: expressed in transfected cells
Description: as §1, §2, §3, §4

T1 sequence (P08588 whole entry): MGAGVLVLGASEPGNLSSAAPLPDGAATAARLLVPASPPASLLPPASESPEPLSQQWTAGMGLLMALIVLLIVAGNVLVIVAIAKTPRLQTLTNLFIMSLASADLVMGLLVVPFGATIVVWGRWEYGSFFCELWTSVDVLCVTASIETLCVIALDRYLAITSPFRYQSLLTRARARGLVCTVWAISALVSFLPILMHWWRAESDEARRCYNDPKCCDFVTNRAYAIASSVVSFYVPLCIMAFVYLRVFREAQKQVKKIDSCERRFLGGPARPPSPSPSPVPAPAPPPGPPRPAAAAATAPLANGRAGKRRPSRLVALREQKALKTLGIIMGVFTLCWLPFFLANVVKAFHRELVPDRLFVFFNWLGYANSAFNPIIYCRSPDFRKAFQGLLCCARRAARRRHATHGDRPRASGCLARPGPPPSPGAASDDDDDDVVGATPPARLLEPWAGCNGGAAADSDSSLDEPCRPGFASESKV
T2 sequence (P07550 whole entry): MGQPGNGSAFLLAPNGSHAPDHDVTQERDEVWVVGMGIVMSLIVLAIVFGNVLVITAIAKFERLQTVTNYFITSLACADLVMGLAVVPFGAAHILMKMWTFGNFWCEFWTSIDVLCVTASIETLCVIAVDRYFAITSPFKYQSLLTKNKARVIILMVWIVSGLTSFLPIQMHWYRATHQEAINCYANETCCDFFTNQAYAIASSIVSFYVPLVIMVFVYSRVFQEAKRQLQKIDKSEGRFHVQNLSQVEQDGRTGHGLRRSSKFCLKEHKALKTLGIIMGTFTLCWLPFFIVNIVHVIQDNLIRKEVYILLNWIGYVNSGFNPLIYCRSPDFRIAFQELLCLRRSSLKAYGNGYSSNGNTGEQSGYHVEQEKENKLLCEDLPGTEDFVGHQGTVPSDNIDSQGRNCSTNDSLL

Compound	EC50 [1] [nM]	EC50 [2] [nM]
Cc1ccc2cccc([C@H](O)CNC(C)(C)C)c2n1 [Compound 04-87]	100 to 1000	100 to 1000
CC(C)(C)NC[C@H](O)c1cccc2c1OCC(=O)N2 [Compound 04-19]	< 10	< 10
Cc1nc(N)c(Cl)cc1[C@H](O)CNC(C)(C)C [Compound 02-9]	100 to 1000	10 to 100
CC(C)(C)NC[C@@H](O)c1nccc2[nH]ncc12 [Compound 04-145, (R)-2-(tert-butylamino)-1-(1H-pyrazolo[4,3-c]pyridin-4-yl)ethan-1-ol]	> 1000	> 1000
CC(C)(C)NC[C@H](O)c1nccc2[nH]ncc12 [Compound 04-144, (S)-2-(tert-butylamino)-1-(1H-pyrazolo[4,3-c]pyridin-4-yl)ethan-1-ol]	> 1000	> 1000
Cc1noc2cccc([C@@H](O)CNC(C)(C)C)c12 [Compound 04-29]	100 to 1000	> 1000
Cc1ccnc2c([C@@H](O)CNC(C)(C)C)cccc12 [Compound 04-84]	< 10	10 to 100
CC(C)(C)NC[C@H](O)c1ccc2[nH]c3ccccc3c2c1 [Compound 04-54]	> 1000	100 to 1000
Cc1noc2ccc([C@H](O)CNC(C)(C)C)cc12 [Compound 04-52]	100 to 1000	10 to 100
CC(C)(C)NC[C@H](O)c1cccc2cn[nH]c12 [Compound 04-26]	10 to 100	10 to 100
CC(C)(C)NC[C@@H](O)c1c(F)ccc2cccnc12 [Compound 04-89]	> 1000	–
CC(C)(C)NC[C@H](O)c1nc(C(F)(F)F)cc2ccccc12 [Compound 04-91]	> 1000	–
CC(C)(C)NC[C@H](O)c1cccc2nccnc12 [Compound 04-75]	< 10	< 10
CC(C)(C)NC[C@H](O)c1cccc2[nH]ncc12 [Compound 04-153]	> 1000	10 to 100
CC(C)CNC[C@H](O)c1cc(F)cc2[nH]ncc12 [Compound 04-146]	< 10	< 10
CC(C)(C)NC[C@H](O)c1cccc2[nH]nc(F)c12 [Compound 04-113]	< 10	< 10
CC(C)(C)NCC(O)c1cccc2ccccc12 (centres unmarked) [Compound 04-98]	< 10	10 to 100
CC(C)(C)NC[C@H](O)c1cccc2c1CCCC(=O)N2 [Compound 04-129]	> 1000	10 to 100
Cc1cc([C@@H](O)CNC(C)(C)C)cc2nc[nH]c12 [Compound 04-155]	> 1000	100 to 1000
Cc1ccnc2c([C@H](O)CNC(C)(C)C)cccc12 [Compound 04-83]	100 to 1000	100 to 1000
CC1(NC[C@H](O)c2cc(F)cc3[nH]ncc23)CCC1 [Compound 04-148]	< 10	< 10

Compound	EC50 [1] [nM]	EC50 [2] [nM]
CC(C)(C)NC[C@H](O)c1cc(Cl)c2[nH]cnc2c1 [Compound 04-117]	100 to 1000	< 10
CC(C)(C)NC[C@H](O)c1ccc2c(n1)NCCO2 [Compound 04-10]	10 to 100	10 to 100
Cc1ccc2cccc([C@@H](O)CNC(C)(C)C)c2n1 [Compound 04-88]	< 10	< 10
CC(C)(C)NC[C@@H](O)c1ccc(F)c2cccnc12 [Compound 04-79]	100 to 1000	100 to 1000
CC(C)(C)NC[C@@H](O)c1cccc(N)n1 [Compound 02-6]	100 to 1000	10 to 100
CC(C)(C)NC[C@H](O)c1ccc2c(c1)C1(CC1)CN2 [Compound 04-123]	> 1000	100 to 1000
CC(C)(C)NC[C@@H](O)c1cccc2c(C#N)ccnc12 [Compound 04-77]	–	> 1000
CC(C)(C)NC[C@H](O)c1cc(F)c2[nH]cnc2c1 [Compound 04-156]	10 to 100	< 10
CC(C)(C)NC[C@H](O)c1cccc2c(C#N)ccnc12 [Compound 04-78]	100 to 1000	–
CC(C)(C)NC[C@H](O)c1cnc2[nH]cnc2c1 [Compound 04-157]	100 to 1000	10 to 100
Cc1ccc([C@@H](O)CNC(C)(C)C)c2cn[nH]c12 [Compound 04-130]	< 10	< 10
CC(C)(C)NC[C@H](O)c1cc(C#N)cc2[nH]ncc12 [Compound 04-104]	100 to 1000	< 10
CC(C)(C)NC[C@H](O)c1cccc2c1OC(C)(C)C(=O)N2 [Compound 04-133]	< 10	< 10
CC(C)(C)NC[C@H](O)c1ccc2[nH]cnc2c1 [Compound 04-124]	10 to 100	< 10
CC(C)(C)NC[C@H](O)c1ccc2cccc(C#N)c2n1 [Compound 04-135]	< 10	< 10
CC(C)(C)NC[C@H](O)c1cccc2c1C1(CC1)C(=O)N2 [Compound 04-103]	100 to 1000	100 to 1000
Cc1cc2c([C@@H](O)CNC(C)(C)C)cccc2[nH]c1=O [Compound 04-18]	< 10	10 to 100
CC(C)(C)NC[C@H](O)c1c2cn[nH]c2cc[n+]1[O-] [Compound 04-106]	100 to 1000	100 to 1000
Cc1cc2c([C@H](O)CNC(C)(C)C)cccc2[nH]c1=O [Compound 04-17]	100 to 1000	> 1000
CC(C)(C)NCC(O)c1ccc2ccc(C(F)(F)F)cc2[n+]1[O-] (centres unmarked) [Compound 04-137]	100 to 1000	10 to 100
CC(C)(C)NC[C@@H](O)c1ccc2cccc(C#N)c2n1 [Compound 04-134]	10 to 100	100 to 1000

Compound	EC50 [1] [nM]	EC50 [2] [nM]
Cc1noc2cccc([C@H](O)CNC(C)(C)C)c12 [Compound 04-30]	> 1000	–
Cn1ncc2cc([C@H](O)CNC(C)(C)C)ccc21 [Compound 04-50]	100 to 1000	10 to 100
Cc1nc([C@@H](O)CNC(C)(C)C)cnc1N [Compound 02-4]	100 to 1000	> 1000
CC(C)(CO)NC[C@H](O)c1cccc2[nH]c(=O)ccc12 [Compound 04-141]	10 to 100	< 10
Cc1nc(N)c(Cl)cc1[C@@H](O)CNC(C)(C)C [Compound 02-14]	10 to 100	< 10
Cc1nc(N)c(C#N)cc1[C@@H](O)CNC(C)(C)C [Compound 02-10]	> 1000	100 to 1000
COc1ccc(C[C@@H](C)NC[C@H](O)c2ccc3c(n2)NCCO3)cc1 [Compound 04-12]	100 to 1000	10 to 100
CC(C)(C)NC[C@H](O)c1ccc2cccc(F)c2n1 [Compound 04-41]	< 10	< 10
CC(C)CNC[C@H](O)c1cccc2[nH]c(=O)ccc12 [Compound 04-143]	10 to 100	10 to 100
CC(C)(C)NC[C@H](O)c1cccc2[nH]cnc12 [Compound 04-24]	10 to 100	10 to 100
CC(C)(C)NC[C@H](O)c1cccc2[nH]ncc12 [Compound 04-25]	< 10	< 10
CC(C)NC[C@H](O)c1cc(F)cc2[nH]ncc12 [Compound 04-149]	< 10	< 10
CC(C)(C)NC[C@H](O)c1ccc(F)c2[nH]c3ccccc3c12 [Compound 04-122]	< 10	< 10
CC(C)(C)NC[C@H](O)c1ccc2c(n1)OCCO2 [Compound 04-7]	10 to 100	10 to 100
CC(C)(C)NC[C@@H](O)c1cccc2c(C(F)(F)F)ccnc12 [Compound 04-70]	–	< 10
CC(C)(C)NC[C@@H](O)c1ccc2ccc(C(F)(F)F)cc2n1 [Compound 04-136]	> 1000	100 to 1000
CC(C)(C)NC[C@H](O)c1cccc2[nH]c3cccnc3c12 [Compound 04-119]	< 10	< 10
CC(C)NC[C@H](O)c1cccc2[nH]c(=O)ccc12 [Compound 04-152]	< 10	< 10
CC(C)(C)NC[C@H](O)c1cccc2ccc(C#N)nc12 [Compound 04-72]	< 10	< 10
Cc1cc([C@@H](O)CNC(C)(C)C)c2cn[nH]c2c1 [Compound 04-109]	10 to 100	< 10
CC(C)(C)NC[C@H](O)c1ccc2c(c1)CC(=O)N2 [Compound 04-121]	–	> 1000
